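Grown in 96-well plates, cells were treated for 48 hours with each compound at five concentrations. Insufficient inhibition: endpoint recorded as highest concentration tested. GI50 is the concentration that inhibits growth by half.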 Active and inactive are the calls of the source. Rule as the data show it: active = GI50 up to about 1.1 µM and inactive = higher.
Assays:
Experiment in all cases: NCI anticancer screen, dose series, 48 h
786-0 = tested on: 786-0
ACHN = tested on: ACHN
CAKI-1 = tested on: CAKI-1
COLO 205 = tested on: COLO 205
HCT-15 = tested on: HCT-15
HL-60 = tested on: HL-60
HOP-62 = tested on: HOP-62
HOP-92 = tested on: HOP-92
K562 = tested on: K562
LOX IMVI = tested on: LOX IMVI
MOLT-4 = tested on: MOLT-4
NCI-H23 = tested on: NCI-H23
OVCAR-3 = tested on: OVCAR-3
PC-3 = tested on: PC-3
RPMI-8226 = tested on: RPMI-8226
SK-MEL-2 = tested on: SK-MEL-2
SK-OV-3 = tested on: SK-OV-3
SN12C = tested on: SN12C
SNB-19 = tested on: SNB-19
U-251 = tested on: U-251

| SMILES | GI50 (786-0) | GI50 (ACHN) | GI50 (CAKI-1) | GI50 (COLO 205) | GI50 (HCT-15) | GI50 (HL-60) | GI50 (HOP-62) | GI50 (HOP-92) | GI50 (K562) | GI50 (LOX IMVI) | GI50 (MOLT-4) | GI50 (NCI-H23) | GI50 (OVCAR-3) | GI50 (PC-3) | GI50 (RPMI-8226) | GI50 (SK-MEL-2) | GI50 (SK-OV-3) | GI50 (SN12C) | GI50 (SNB-19) | GI50 (U-251) |
| --- | --- | --- | --- | --- | --- | --- | --- | --- | --- | --- | --- | --- | --- | --- | --- | --- | --- | --- | --- | --- |
| COc1cc(C=C2C(=O)NC(=S)NC2=O)cc(OC)c1OC | > 100 µM (inactive) | > 100 µM (inactive) | > 100 µM (inactive) | > 100 µM (inactive) | > 100 µM | > 100 µM (inactive) | > 100 µM (inactive) | > 100 µM (inactive) | > 100 µM (inactive) | > 100 µM (inactive) | > 100 µM (inactive) | > 100 µM (inactive) | > 100 µM (inactive) | > 100 µM (inactive) | > 100 µM (inactive) | > 100 µM (inactive) | > 100 µM (inactive) | > 100 µM (inactive) | > 100 µM (inactive) | > 100 µM (inactive) |
| O=C(O)c1ccccc1-c1ccccc1C(=O)c1ccccc1 | > 100 µM (inactive) | > 100 µM (inactive) | > 100 µM (inactive) | > 100 µM (inactive) | > 100 µM | > 100 µM (inactive) | > 100 µM (inactive) | 51.6 µM (inactive) | > 100 µM (inactive) | > 100 µM (inactive) | > 100 µM (inactive) | > 100 µM (inactive) | > 100 µM (inactive) | > 100 µM (inactive) | > 100 µM (inactive) | > 100 µM (inactive) | > 100 µM (inactive) | > 100 µM (inactive) | > 100 µM (inactive) | > 100 µM (inactive) |
| CN(C)CCSS(=O)(=O)O | > 100 µM (inactive) | > 100 µM (inactive) | > 100 µM (inactive) | > 100 µM (inactive) | > 100 µM | > 100 µM (inactive) | 15.4 µM (inactive) | > 100 µM (inactive) | > 100 µM (inactive) | 40.2 µM (inactive) | > 100 µM (inactive) | > 100 µM (inactive) | 9.16 µM (inactive) | > 100 µM (inactive) | > 100 µM (inactive) | > 100 µM (inactive) | 29.4 µM (inactive) | > 100 µM (inactive) | > 100 µM (inactive) | 30.2 µM (inactive) |
| Cc1cccc(N2C(=O)C3c4[nH]c5ccccc5c4C4CCC(C(C)(C)C)CC4C3C2=O)c1C (stereo not given) | 38.7 µM (inactive) | > 100 µM (inactive) | > 100 µM (inactive) | > 100 µM (inactive) | > 100 µM | 16.9 µM (inactive) | > 100 µM (inactive) | > 100 µM (inactive) | > 100 µM (inactive) | > 100 µM (inactive) | > 100 µM (inactive) | > 100 µM (inactive) | > 100 µM (inactive) | > 100 µM (inactive) | > 100 µM (inactive) | > 100 µM (inactive) | > 100 µM (inactive) | 78.7 µM (inactive) | > 100 µM (inactive) | 28.2 µM (inactive) |
| c1ccc2c(c1)cc1n2CCc2c-1[nH]c1ccccc21 | > 10 µM (inactive) | > 10 µM (inactive) | > 10 µM (inactive) | > 10 µM (inactive) | 5.12 µM | > 10 µM (inactive) | > 10 µM (inactive) | > 10 µM (inactive) | > 10 µM (inactive) | > 10 µM (inactive) | > 10 µM (inactive) | > 10 µM (inactive) | > 10 µM (inactive) | > 10 µM (inactive) | > 10 µM (inactive) | > 10 µM (inactive) | > 10 µM (inactive) | > 10 µM (inactive) | > 10 µM (inactive) | > 10 µM (inactive) |
| CC(C)C1/C(=N/O)CC(c2ccccc2)N(N=O)C1c1ccccc1 (stereo not given) | 31.1 µM (inactive) | 36.4 µM (inactive) | 19.2 µM (inactive) | 16.9 µM (inactive) | 40.6 µM | 32.1 µM (inactive) | 72.6 µM (inactive) | 33.7 µM (inactive) | 35.5 µM (inactive) | 28.8 µM (inactive) | 32.3 µM (inactive) | 47.1 µM (inactive) | 36.8 µM (inactive) | 33.3 µM (inactive) | 45.4 µM (inactive) | 24.5 µM (inactive) | 24.8 µM (inactive) | 53.7 µM (inactive) | > 100 µM (inactive) | 52.7 µM (inactive) |
| O=C(NC1(C(=O)O)CC1c1ccccc1)c1ccccc1 (stereo not given) | > 100 µM (inactive) | > 100 µM (inactive) | > 100 µM (inactive) | > 100 µM (inactive) | > 100 µM | > 100 µM (inactive) | > 100 µM (inactive) | > 100 µM (inactive) | > 100 µM (inactive) | > 100 µM (inactive) | > 100 µM (inactive) | > 100 µM (inactive) | > 100 µM (inactive) | > 100 µM (inactive) | > 100 µM (inactive) | > 100 µM (inactive) | > 100 µM (inactive) | > 100 µM (inactive) | > 100 µM (inactive) | > 100 µM (inactive) |
| COC(O)C12OC3CO[Si](C(C)C)(C(C)C)O[Si](C(C)C)(C(C)C)OC3C1Oc1nc(=O)ccn12 (stereo not given) | 15.2 µM (inactive) | 14.1 µM (inactive) | 18.2 µM (inactive) | 12.7 µM (inactive) | 16.3 µM | 3.29 µM (inactive) | 13.7 µM (inactive) | 10.1 µM (inactive) | 1.52 µM (inactive) | 12.7 µM (inactive) | 2.15 µM (inactive) | 14.3 µM (inactive) | 11.3 µM (inactive) | 4.7 µM (inactive) | 1 µM (active) | 12 µM (inactive) | 17.7 µM (inactive) | 13.3 µM (inactive) | 14.4 µM (inactive) | > 31.7 µM (inactive) |
| CC1=CC(C)C/C=C/C2C3OC3(C)C(C)C3C(Cc4c[nH]c5ccccc45)NC(=O)C23C(=O)C=CC(=O)C1O (stereo not given) | 3.25 µM (inactive) | 1.35 µM (inactive) | 0.885 µM (active) | 0.354 µM (active) | 2.26 µM | 1.61 µM (inactive) | 6.79 µM (inactive) | 0.9 µM (active) | 3.06 µM (inactive) | 2.88 µM (inactive) | 2.01 µM (inactive) | 14.5 µM (inactive) | 5.26 µM (inactive) | 11.6 µM (inactive) | 0.272 µM (active) | 15.8 µM (inactive) | 12.4 µM (inactive) | 8.77 µM (inactive) | 11 µM (inactive) | 16.4 µM (inactive) |
| O=C1c2cccc3cccc(c23)C(=O)N1CCCNCCCCNCCCN1C(=O)c2cccc3cccc(c23)C1=O | 0.0311 µM (active) | 0.757 µM (active) | 0.857 µM (active) | 0.192 µM (active) | 3.22 µM | 0.32 µM (active) | 0.205 µM (active) | 0.18 µM (active) | 0.0226 µM (active) | 0.0229 µM (active) | < 0.01 µM (active) | 0.0944 µM (active) | 0.2 µM (active) | 0.17 µM (active) | < 0.0205 µM (active) | 0.521 µM (active) | 0.982 µM (active) | 0.104 µM (active) | 0.124 µM (active) | 0.0402 µM (active) |
| O=C(N/N=C(COc1ccccc1)\N=C\c1ccncc1)c1ccncc1 | > 100 µM (inactive) | > 100 µM (inactive) | > 100 µM (inactive) | > 100 µM (inactive) | > 100 µM | > 100 µM (inactive) | > 100 µM (inactive) | 68.7 µM (inactive) | > 100 µM (inactive) | > 100 µM (inactive) | 82 µM (inactive) | > 100 µM (inactive) | > 100 µM (inactive) | > 100 µM (inactive) | 97.5 µM (inactive) | > 100 µM (inactive) | > 100 µM (inactive) | > 100 µM (inactive) | > 100 µM (inactive) | > 100 µM (inactive) |
| CC1=NNC(=O)C1C1CC(c2c[nH]c3ccccc23)=NN=C1Cl (stereo not given) | 49.9 µM (inactive) | 86.1 µM (inactive) | > 100 µM (inactive) | 28.1 µM (inactive) | 35.8 µM | 20 µM (inactive) | > 100 µM (inactive) | > 100 µM (inactive) | 28.4 µM (inactive) | 33.3 µM (inactive) | 24.2 µM (inactive) | 39.4 µM (inactive) | 62.1 µM (inactive) | 56.5 µM (inactive) | 23.7 µM (inactive) | > 100 µM (inactive) | > 100 µM (inactive) | 82 µM (inactive) | 40.9 µM (inactive) | 43.6 µM (inactive) |
| CC(=O)NC1C(OC2C(CO)OC(OCC3OC(n4ccc(N)nc4=O)C(O)C3O)C(NC(C)=O)C2O)OC(CO)C(O)C1O (stereo not given) | > 100 µM (inactive) | 99.8 µM (inactive) | > 100 µM (inactive) | > 100 µM (inactive) | > 100 µM | > 34.6 µM (inactive) | > 100 µM (inactive) | > 100 µM (inactive) | > 100 µM (inactive) | > 100 µM (inactive) | > 29.4 µM (inactive) | 97.9 µM (inactive) | > 100 µM (inactive) | > 100 µM (inactive) | > 100 µM (inactive) | > 100 µM (inactive) | > 100 µM (inactive) | > 100 µM (inactive) | > 100 µM (inactive) | > 100 µM (inactive) |
| c1ccc([B-]2(c3ccccc3)NCCCO2)cc1 | 56.9 µM (inactive) | 35.4 µM (inactive) | 40.6 µM (inactive) | 24.9 µM (inactive) | 31.8 µM | > 100 µM (inactive) | > 100 µM (inactive) | 20.3 µM (inactive) | 97.7 µM (inactive) | 59.4 µM (inactive) | 32.7 µM (inactive) | 47 µM (inactive) | 35.1 µM (inactive) | 20.9 µM (inactive) | 37.2 µM (inactive) | 89.9 µM (inactive) | 85.7 µM (inactive) | 70.8 µM (inactive) | > 100 µM (inactive) | > 100 µM (inactive) |
